Data from US10526373B2, “Peptide showing melanin generation-promoting activity and use thereof” (CAREGEN CO., LTD., priority 2016, dated 2020).
No end group written: not given here.

Columns and labels:
Format in all cases: cell-based
MITF [1] = test: RT-PCR of melanogenesis-related genes: MITF; settings: mouse melanin cell line B16F10, 72 hours
Protocol: (§1) Melanocytes (B16F10 cell line) were incubated on 6-well culture plates in an incubator for 24 hours, and were treated with the peptides of the present invention with different concentrations. After RNA was extracted from the cells incubated for 72 hours, cDNA was prepared. PCR was performed by using respective primers specific to MITF and tyrosinase, which are the factors involved in melanogenesis, and the expression changes of the respective genes were observed.

tyrosinase [2] = test: Tyrosinase activity assay in B16F10 cell lysate (L-dopa); settings: mouse melanin cell line B16F10, peptide at different concentrations, 72 hours
Protocol: Melanoma cell line (B16F10) cells were cultured in 6-well culture plates for 24 hours, and treated with the peptide with difference concentrations, followed by culture for 72 hours. The 6-well culture plates were loaded on ice and washed with cool PBS, and then 300 μl of 0.1 M sodium phosphate buffer (pH 6 lysis buffer) containing 1% Triton X-100 was added. The cells were collected in 1.5-mL tubes, and then cell membranes were disrupted by repeating five times rapid-freezing at […] and thawing. After centrifugation at 13,000 rpm for 20 minutes, the supernatant was collected in other 1.5-mL tubes, and the protein of the samples was quantified. The samples were diluted to have the same protein concentration and then dispensed in every three wells in 96-well culture plates, and then 20 μl of 10 mM L-dopa was added, followed by incubation at 37° C. for 1 hour. The absorbance was measured at 475 nm.

tyrosinase [3] = test: Western blotting of melanogenesis-related proteins: tyrosinase; settings: mouse melanin cell line B16F10, 72-hour incubation
Protocol: (§2) Melanocytes (B16F10 cell line) were incubated on 6-well culture plates in an incubator for 24 hours, and were treated with the peptides of the present invention with different concentrations. After 72-hour incubation, the cells were lysed, and the cells were subjected to western blotting using specific antibodies (two types, both by Santa Cruz Biotechnology, USA) to investigate the expression of MITF and tyrosinase, which are the factors involved in melanogenesis.

TRP1 = test: RT-PCR of melanogenesis-related genes: TRP1; settings: mouse melanin cell line B16F10, 72 hours
[4] = tested on: melanocytes (B16F10 cell line); test: Melanogenesis assay; settings: mouse melanin cell line B16F10, peptide at different concentrations, 72 hours
Protocol: After melanocytes (B16F10 cell line) in 6-well plates were cultured in an incubator at 37° C. for 24 hours, the medium of each plate was removed and exchanged with fresh medium, followed by treatment with the present peptide at different concentrations. After the incubation for 72 hours, the culture medium was removed, and the cells were taken off and then transferred into 5-ml tubes, followed by centrifugation at 13,000 rpm for 3 minutes. The supernatant was removed, and cell pellets were collected to observe melanin. Then, 150 μl of 2 M NaOH was added to the cell pellets to lyse intracellular melanin at 60° C. for 30 minutes. Then, 100 μl of the supernatant obtained from the lysis was added into each well of 96-well plates, and the absorbance was measured at 490 nm.

MITF [5] = test: Western blotting of melanogenesis-related proteins: MITF; settings: mouse melanin cell line B16F10, 72-hour incubation
Protocol: as §2

CREB = test: Melanogenesis-related protein activity assay (CREB phosphorylation, western blotting); settings: mouse melanin cell line B16F10, 72-hour incubation
Protocol: as §2, with “peptide” for “peptides”, “(Cell Signaling Technology,” for “(two types, both by Santa Cruz Biotechnology,”, “phosphorylation level” for “expression”, “CREB,” for “MITF and tyrosinase,”, “is a signaling substance” for “are the factors”

tyrosinase [6] = test: RT-PCR of melanogenesis-related genes: tyrosinase; settings: mouse melanin cell line B16F10, 72 hours
Protocol: as §1

RWRRKIEN [SEQ ID NO: 1]
increased: mRNA expression of MITF (MITF [1]) | tyrosinase activity (absorbance at 475 nm) (tyrosinase [2]) | protein expression of tyrosinase (tyrosinase [3]) | mRNA expression of TRP1 (TRP1) | melanogenesis (melanin, absorbance at 490 nm) [4] | protein expression of the MITF transcriptional factor (MITF [5]) | phosphorylation level of CREB (CREB) | mRNA expression of tyrosinase (tyrosinase [6])

FCLGPCPYIWSL (cysteine pairing not given here) [SEQ ID NO: 2]
increased: mRNA expression of MITF (MITF [1]) | tyrosinase activity (absorbance at 475 nm) (tyrosinase [2]) | protein expression of tyrosinase (tyrosinase [3]) | mRNA expression of TRP1 (TRP1) | melanogenesis (melanin, absorbance at 490 nm) [4] | mRNA expression of tyrosinase (tyrosinase [6])
